Results: patent publication US20170172994A1, “COMPOSITIONS AND METHODS FOR TREATING BACTERIAL INFECTIONS” (WOCKHARDT LIMITED, priority 2013, published 2017)
Read-outs that look alike come from different tables or passages of the source.

Key:
P. aeruginosa PAO1 = assay: Time kill study (viability count); type: cell-based; conditions: for Bacterial count: Compound of Formula (III) 4 μg/ml, alone or combined; for Bactericidal action (in words): P. aeruginosa PAO1, standalone or combination, Tables 6 and 7
Description: (§1) The antibacterial effectiveness of various antibacterial agents in presence of a compound of Formula (III) was investigated and the results are detailed below. In a typical study, overnight cultures in Trypticase soya broth (TSB) were brought to log phase by 1 in 10 dilution in fresh cation adjusted Mueller Hinton Broth (MHB) and incubation for 2.5 hours at 35° C. in orbital shaker. Log phase cultures were diluted to desired inoculums in flasks with MHB, containing various drug concentrations. Flasks were incubated at 35° C. in orbital shaker with rotational speed of 125 rpm. Viability count was determined by 1 in 10 serial dilutions of samples in normal saline and surface spreading of 10 μl of dilutions in duplicate on Trypticase soya agar plates. Plates were incubated for 24 hours at 35° C. and colonies were enumerated to determine the colony forming units (CFU) per ml volume.

E. coli ATCC 25922 [1] = assay: Time kill study (viability count); type: cell-based; conditions: for Bacterial count: Compound of Formula (III) 2 μg/ml, alone or combined; for Bactericidal action (in words): E. coli ATCC 25922, standalone or combination, Tables 3 to 5
Description: as §1

[2] = system: K. pneumonia S48 expressing multiple ESBLs including MBL (NDM4) and Class A (CTX-M, SHV, TEM); type: cell-based, K. pneumoniae; conditions: Cefepime 8 μg/ml, Compound of Formula (III) 2 μg/ml, Clavulanic acid 2 μg/ml, Mecillinam 2 μg/ml, Imipenem 8 μg/ml
Description: Log phase cultures were diluted to desired inoculums in flasks with MHB, containing various drug concentrations. Flasks were incubated at 35° C. in orbital shaker with rotational speed of 125 rpm. […] Plates were incubated for 24 hours at 35° C. and colonies were enumerated to determine the colony forming units (CFU) per ml volume.

[3] = system: Acinetobacter baumannii NCTC 13304 producing carbapenem hydrolyzing Class D OXA enzyme (OXA 27); assay: Time kill study (viability count); type: cell-based; conditions: Cefepime 8 μg/ml, Compound of Formula (III) 8 μg/ml, Imipenem 16 μg/ml
Description: as §1

[4] = system: Pseudomonas aeruginosa NCTC 13437 producing carbapenem hydrolyzing MBL (VIM 10) & Class A (VEB1); assay: Time kill study (viability count); type: cell-based; conditions: Cefepime 8 μg/ml, Compound of Formula (III) 8 μg/ml, Imipenem 16 μg/ml
Description: as §1

E. coli ATCC 25922 [5] = assay: Microbiological drug diffusion assay, standalone compounds in absence of beta-lactamase enzymes; type: cell-based; conditions: Escherichia coli, ATCC25922, 40 μg/ml, no beta-lactamase, read-out: Inhibition zone diameter
Description: Next, the beta-lactamase stability of some of these compounds was evaluated. In a typical stability study, ESBL enzymes from K. pneumoniae S48 producing Metalo betalactamase (NDM4) and Class A (CTX-M, SHV, TEM) beta-lactamase were isolated from freshly grown culture by 5 repetitive cycles of freeze and thaw in liquid nitrogen. […] After the stipulated incubation duration, the test compounds were extracted from the reaction mixture by the addition of 0.5 ml of Acetonitrile in 1:1 ratio (final concentration of test compound—40 μg/ml) and centrifuged at 12000 rpm for 2 min to separate precipitated protein. The activity of test compounds was measured from the supernatant by performing microbiological drug diffusion assay. For drug diffusion assay, Muller-Hinton Agar (MHA) seeded with E. coli ATCC 25922 was poured on to a bioassay plate placed on a flat surface and allowed to solidify. Appropriate concentration of the standalone and enzyme treated test compound dilutions were added to 6 mm wells cut with the help of a borer. The antibacterial activity of the test compounds was measured in terms of zones of inhibition appearing after 18-24 hours of incubation at 37° C. Measurement of diameter of zone of inhibition was undertaken to the nearest whole value with the help of ruler.

[6] = system: MDR P. mirabilis G 186 producing NDM & TEM β-lactamases; assay: Time kill study at MFC and MSC; type: cell-based; conditions: Cefepime 8 mcg/ml (MFC), Compound of Formula (III) 0.25 mcg/ml (MSC), Imepenem 8 mcg/ml
Description: (§2) The synergistic killing effect of the combinations according to invention was studied by performing time kill studies. In a typical time kill study, the freshly grown cultures were diluted to the required cell density (initial starting inoculum) in Cation adjusted Muller Hinton broth medium (BD, USA). The antibacterial agents (either alone or in combination) at the required concentrations were added into the culture-containing medium. The samples were incubated under shaking condition (120 rpm) at 37° C. Enumeration of viable bacterial count was done every 2 hour by diluting in normal saline and plating on to the Tryptic Soya Agar plates (BD, USA). The plates were incubated for 24 hours to arrive at the viable bacterial count. The results are expressed in terms of Log CFU per ml. In general, the decrease of 1 Log CFU/ml, corresponds to 90% killing of bacteria. Similarly, 2 Log CFU/ml reductions indicates to 99% killing of bacteria and 3 Log CFU/ml reductions is equal to 99.9% killing of bacteria.

[7] = system: MDR Klebsiella pneumoniae B 88 producing NDM, SHV & TEM beta-lactamases; assay: Time kill study at MFC and MSC; type: cell-based; conditions: Cefepime 8 mcg/ml (MFC), Compound of Formula (III) 0.12 mcg/ml (MSC), Imepenem 8 mcg/ml
Description: as §2

SMILES: NC(=O)c1cc[n+](CC2=C(C(=O)O)N3C(=O)[C@@H](NC(=O)[C@@H](c4ccccc4)S(=O)(=O)[O-])[C@H]3SC2)cc1 [Cefsulodin]
- Bacterial count (P. aeruginosa PAO1; 0 hour, Cefsulodin 2 μg/ml): 6.81 log (CFU/ml)
- Bacterial count (P. aeruginosa PAO1; 2 hours, Cefsulodin 2 μg/ml): 6.48 log (CFU/ml)
- Bacterial count (P. aeruginosa PAO1; 4 hours, Cefsulodin 2 μg/ml): 5.07 log (CFU/ml)
- Bacterial count (P. aeruginosa PAO1; 6 hours, Cefsulodin 2 μg/ml): 4.74 log (CFU/ml)
- Bacterial count (P. aeruginosa PAO1; 24 hours, Cefsulodin 2 μg/ml): 9 log (CFU/ml)
- Bactericidal action (in words) (P. aeruginosa PAO1): failed to cause consistent killing till 24 hour
- Bacterial count (E. coli ATCC 25922 [1]; 0 hour, Cefsulodin 16 μg/ml): 7.47 log (CFU/ml)
- Bacterial count (E. coli ATCC 25922 [1]; 2 hours, Cefsulodin 16 μg/ml): 8.4 log (CFU/ml)
- Bacterial count (E. coli ATCC 25922 [1]; 4 hours, Cefsulodin 16 μg/ml): 8.8 log (CFU/ml)
- Bacterial count (E. coli ATCC 25922 [1]; 6 hours, Cefsulodin 16 μg/ml): 8.3 log (CFU/ml)
- Bacterial count (E. coli ATCC 25922 [1]; 24 hours, Cefsulodin 16 μg/ml): 9 log (CFU/ml)
- Bactericidal action (in words) (E. coli ATCC 25922 [1]): did not exhibit any bactericidal action

SMILES: CO[C@@]1(NC(=O)Cc2cccs2)C(=O)N2C(C(=O)O)=C(COC(N)=O)CS[C@@H]21 [Cefoxitin]
- Bacterial count (E. coli ATCC 25922 [1]; 0 hour, Cefoxitin 1 μg/ml): 7.47 log (CFU/ml)
- Bacterial count (E. coli ATCC 25922 [1]; 2 hours, Cefoxitin 1 μg/ml): 7.11 log (CFU/ml)
- Bacterial count (E. coli ATCC 25922 [1]; 4 hours, Cefoxitin 1 μg/ml): 6.7 log (CFU/ml)
- Bacterial count (E. coli ATCC 25922 [1]; 6 hours, Cefoxitin 1 μg/ml): 6.54 log (CFU/ml)
- Bacterial count (E. coli ATCC 25922 [1]; 24 hours, Cefoxitin 1 μg/ml): 9 log (CFU/ml)
- Bactericidal action (in words) (E. coli ATCC 25922 [1]): did not exhibit any significant bactericidal action

SMILES: C[C@@H](O)[C@H]1C(=O)N2C(C(=O)O)=C(SCCN=CN)C[C@H]12 [Imipenem]
- Bacterial count ([2]; 0 hour): 5.5 log (CFU/ml)
- Bacterial count ([2]; 2 hours): 3.0 log (CFU/ml)
- Bacterial count ([2]; 4 hours): 3.0 log (CFU/ml)
- Bacterial count ([2]; 6 hours): 4.0 log (CFU/ml)
- Bacterial count ([2]; 24 hours): 8.69 log (CFU/ml)
- Bacterial count ([3]; 0 hour): 6.3 log (CFU/ml)
- Bacterial count ([3]; 2 hours): 7.2 log (CFU/ml)
- Bacterial count ([3]; 4 hours): 7.9 log (CFU/ml)
- Bacterial count ([3]; 6 hours): 7.9 log (CFU/ml)
- Bacterial count ([3]; 8 hours): 8 log (CFU/ml)
- Bacterial count ([4]; 0 hour): 6.0 log (CFU/ml)
- Bacterial count ([4]; 2 hours): 7.2 log (CFU/ml)
- Bacterial count ([4]; 4 hours): 7.9 log (CFU/ml)
- Bacterial count ([4]; 6 hours): 7.9 log (CFU/ml)
- Bacterial count ([4]; 12 hours): 8.3 log (CFU/ml)
- zone of inhibition at 40 µg/mL (E. coli ATCC 25922 [5]; 0 hour): 22 mm
- zone of inhibition at 40 µg/mL (E. coli ATCC 25922 [5]; 1 hour): 22 mm
- zone of inhibition at 40 µg/mL (E. coli ATCC 25922 [5]; 2 hours): 22 mm
- zone of inhibition at 40 µg/mL (E. coli ATCC 25922 [5]; 24 hours): 22 mm
- Bacterial count ([6]; 0 hour): 6.58 Log10 CFU/ml
- Bacterial count ([6]; 2 hours): 7.2 Log10 CFU/ml
- Bacterial count ([6]; 4 hours): 9.45 Log10 CFU/ml
- Bacterial count ([6]; 6 hours): 8.65 Log10 CFU/ml
- Bacterial count ([6]; 8 hours): 8.85 Log10 CFU/ml
- Bacterial count ([7]; 0 hour): 6.14 Log10 CFU/ml
- Bacterial count ([7]; 2 hours): 8.65 Log10 CFU/ml
- Bacterial count ([7]; 4 hours): 8.7 Log10 CFU/ml
- Bacterial count ([7]; 6 hours): 8.74 Log10 CFU/ml
- Bacterial count ([7]; 8 hours): 8.78 Log10 CFU/ml

SMILES: C[C@H]1[C@H](NC(=O)/C(=N\OC(C)(C)C(=O)O)c2csc(N)n2)C(=O)N1S(=O)(=O)O [Aztreonam]
- Bacterial count (P. aeruginosa PAO1; 0 hour, Aztreonam 2 μg/ml): 5.74 log (CFU/ml)
- Bacterial count (P. aeruginosa PAO1; 2 hours, Aztreonam 2 μg/ml): 6.3 log (CFU/ml)
- Bacterial count (P. aeruginosa PAO1; 4 hours, Aztreonam 2 μg/ml): 6.65 log (CFU/ml)
- Bacterial count (P. aeruginosa PAO1; 6 hours, Aztreonam 2 μg/ml): 6.54 log (CFU/ml)
- Bacterial count (P. aeruginosa PAO1; 24 hours, Aztreonam 2 μg/ml): 7.15 log (CFU/ml)
- Bactericidal action (in words) (P. aeruginosa PAO1): did not exhibit any bactericidal action
- Bacterial count (E. coli ATCC 25922 [1]; 0 hour, Aztreonam 1 μg/ml): 7.47 log (CFU/ml)
- Bacterial count (E. coli ATCC 25922 [1]; 2 hours, Aztreonam 1 μg/ml): 7.48 log (CFU/ml)
- Bacterial count (E. coli ATCC 25922 [1]; 4 hours, Aztreonam 1 μg/ml): 7.47 log (CFU/ml)
- Bacterial count (E. coli ATCC 25922 [1]; 6 hours, Aztreonam 1 μg/ml): 7.48 log (CFU/ml)
- Bacterial count (E. coli ATCC 25922 [1]; 24 hours, Aztreonam 1 μg/ml): 7.5 log (CFU/ml)
- Bactericidal action (in words) (E. coli ATCC 25922 [1]): did not exhibit any bactericidal action
